These results are taken from paper PMC7687371, “Quantitative in Vitro to in Vivo Extrapolation (QIVIVE) for Predicting Reduced Anogenital Distance Produced by Anti-Androgenic Pesticides in a Rodent Model for Male Reproductive Disorders” (Environmental Health Perspectives, 2020).

Like-named read-outs stand apart in the source and are kept apart here. Marks after values point to notes of the source that are not given here.

In data set [1] the test system is NCI-H295R cells. Put plainly: Cell viability (MTT) in the H295R assay. The format is cell-based, human. Particulars: human, 48 h. The protocol: To capture effects on steroid hormone synthesis (testosterone and androstendione), we tested all 12 pesticides in the H295R assay with the human adrenocortical carcinoma cell line NCI-H295R (American Type Culture Collection no. CRL-2,128, LGC Standards), as previously described ([Hecker et al. 2011]; [Rosenmai et al. 2013]). In brief, cells were cultured in DMEM/F-12 +glutamine medium with HEPES buffer (Invitrogen) containing 1% insulin-transferrin-sodium selenite plus Premix (VWR) and 2.5% Nu-Serum (BD Bioscience) at 37°C in a 5% CO2 atmosphere. The day before exposure, cells were seeded 300,000 per well in clear 24-well plates (VWR Corning). Cells were exposed for 48 h to control (Forskolin: 1μM , 10μM (Sigma-Aldrich); and Prochloraz: 0.3μM , 3μM (VWR-Bie and Berntsen) or test compounds. The vehicle (DMSO) concentration was kept constant in all wells (0.1%). After 48 h, the exposure culture medium was removed and stored at –80°C until the levels of 10 steroid hormones (testosterone, androstenedione, aldosterone, corticosterone, cortisol, dehydroepiandrosterone, 17α-hydroxyprogesterone , progesterone, estrone, and 17β-estradiol ) were quantified using the high-performance liquid chromatography–tandem mass spectrometry method described elsewhere ([Mortensen and Pedersen 2007]). Minor modifications were made to accommodate a smaller sample size and to include more hormones. […]

Data set [2] concerns Wistar rats. The following applies: rat, in vivo.
The test system of data set [3] is Sprague-Dawley rats. Particulars: male, rat, in vivo.
The test system of data set [4] is Wistar rats. The following applies: male, rat, in vivo, 40 mg/kg/day. The protocol: In total, four in vivo exposure studies were conducted with pesticide exposures to pregnant rats during gestation and lactation to the selected compound (Table 2). […] For one selected dose of each compound, the internal body concentrations in dams and fetuses were determined by cesarean section at GD21. Due to the study outcomes from the third study, we conducted a fourth follow-up study on dimethomorph (Study 4).
Pup weights and AGD were measured after birth at PD1 using a stereomicroscope with a micrometer eyepiece and were determined as the distance between the genital papilla and the anus. To discriminate between an anti-androgenic effect and stunted growth, the AGD index (AGDI) was calculated by dividing AGD by the cube root of the BW (as described by [Hass et al. 2007]). The estimation of AGDI effect doses by regression modeling required a standardized AGDI scale. Therefore, we normalized the AGDI values in relation to the dynamic range spanned by the mean AGDI of the male and the female controls as (38) normalized AGDI=mean(AGDI of male controls)−AGDI(exposed animal)/mean(AGDI of male controls)−mean(AGDI of female controls).

Data set [5] deals with Wistar rats. Particulars: rat, in vivo; cited from earlier work.

On to `N#Cc1c[nH]cc1-c1cccc2c1OC(F)(F)O2` [Fludioxonil, fludioxonil], for which, in data set [1], the “Cytotoxicity in H295R assay, concentrations” value is recorded as > 12.5 µM.

With `COc1ccc(C(=CC(=O)N2CCOCC2)c2ccc(Cl)cc2)cc1OC` [Dimethomorph, dimethomorph], the “Shortening of AGDI compared with male controls (normalized AGDI scale)” value in data set [2] (male, Wistar (HanTac:WH)) is “around 10%”. Further, the AGDI mean in data set [2] (male, Wistar, 20 mg/kg) is reported as 2.01; in data set [2] (male, Wistar, 60 mg/kg) it was 2.16; in data set [3] (20 mg/kg), 1.95; in data set [3] (60 mg/kg), 1.88; in data set [3] (180 mg/kg), 1.91. Further, the “AGDI reduction (%)” value in data set [2] (male, Wistar, 20 mg/kg/day) was 13%. For the same molecule, the “Nipple retention at PD14, statistics in words” value in data set [2] is on record as “no statistically significant effects on nipple retention”.

For `CC12CC1(C)C(=O)N(c1cc(Cl)cc(Cl)c1)C2=O` (centres unmarked) [Procymidone, procymidone, reference compound], the “AGDI reduction (%)” value in data set [4] is reported as 34^d %. Further, the “AGDI ED50” value in data set [5] was 69.4 mg/kg BW.
